Target: T1, KRAS G12C and cRAF (Homo sapiens, UniProt P01116, C118S/C51S/C80L/G12C)
T1 construct: truncated version comprising amino acids 1-169
Assay: AlphaScreen inhibition of KRAS G12C (GMPPNP-loaded) and cRAF RBD binding
Assay type: biochemical
Conditions: KRAS G12C preloaded with GMPPNP, 0.5 nM KRAS G12C, 0.75 nM RBD, 19-20 h compound incubation, room temperature
Description: The ability of compounds of Formula (I), Formula (I-1), Formula (I-2), Formula (II), Formula (II-1) and Formula (II-2), and pharmaceutically acceptable salts and/or isotopologues thereof, to inhibit activity of the GTP-bound form of KRAS G12C can be tested using methods such as the in vitro assay described in Examples 308 and 309 below. Example 308 describes determining, for various compounds, the half-maximal inhibition (IC50) of KRAS G12C loaded with GTP analogue GMPPNP from binding to cRaf, as the Ras-binding domain (RBD). […]
The AlphaScreen technology was used to determine IC50S for compound inhibition of KRAS G12C (present as the Cys-light (C51S, C80L and C118S), truncated version comprising amino acids 1-169) and cRAF interaction. […] A mixture of RBD and the AlphaScreen streptavidin donor and glutathione acceptor beads diluted in 25 mM Hepes, pH 7.4, 150 mM NaCl, 5 mM MgCl2, 0.01% TritonX-100 and 2% DMSO was then added at 10 ul/well and incubated for 60-90 minutes before the samples were read for emission at 570 nm after excitation of the donor beads at 680 nm. […] IC50S were determined using nonlinear regression fit of [inhibitor]vs. response (4 parameters).
A counter assay was also set up to rule out inhibitors of the AlphaScreen technology itself. […] Samples were read and analyzed as above.

T1 sequence (P01116 1-169 isoform P01116-2 G12C/C51S/C80L/C118S): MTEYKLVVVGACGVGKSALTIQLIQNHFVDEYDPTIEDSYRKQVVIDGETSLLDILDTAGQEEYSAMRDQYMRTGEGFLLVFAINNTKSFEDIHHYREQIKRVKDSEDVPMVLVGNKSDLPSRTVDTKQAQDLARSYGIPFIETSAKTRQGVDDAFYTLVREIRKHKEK

## Cc1noc(/C=C/C(=O)N2CC(CN(C)c3nc(OC[C@@]45CCCN4C[C@H](F)C5)nc4c(F)c(-c5cc(O)cc6cccc(Cl)c56)ncc34)C2)n1 [Example 98, (E)-1-(3-(((7-(8-chloro-3-hydroxynaphthalen-1-yl)-8-fluoro-2-(((2R,7aS)-2-fluorotetrahydro-1H-pyrrolizin-7a(5H)-yl)methoxy)pyrido[4,3-d]pyrimidin-4-yl)(methyl)amino)methyl)azetidin-1-yl)-3-(3-methyl-1,2,4-oxadiazol-5-yl)prop-2-en-1-one]
  IC50: < 10 nM

Source: patent US20250340548A1, “KRAS G12C INHIBITORS” (Frontier Medicines Corporation, priority 2021, published 2025)
